Read-outs that look alike come from different tables or passages of the source.

The nature of data set [1]: Tablet characterisation (hardness, friability, disintegration, HPLC recovery). The conditions noted are these: prototype tablets disintegrated in water. In kind it is physicochemical. The procedure: Dilution Approach: DAPA-2-5 liquid were loaded onto excipients (batch size: 12-24 g) in ˜12 experiments. The API and the selected excipients were mixed geometrically using a stainless steel spatula, and the mixture passed through sieve #20. The sieved blend was lubricated using magnesium stearate (previously sieved through mesh #40), and evaluated for appearance and flow property (through funnel). Based on the flow nature, selected blends were compressed in to tablets using Ø7.2 mm (for 120 mg tablets) or Ø9.5 mm (for higher than 120 mg tablet) standard concave round tooling on an Acura rotary press. Tablets were evaluated for thickness, hardness, friability, and disintegration test in 10 mL of purified water at room temperature. The appearance of powder blends and tablets were photographed.
The formed tablet was evaluated by several parameters. The dissolution rate is the time for the tablet to dissolve in a fixed volume of water [e.g. 10 mL] and, in the case of the ODT, the disintegration time should be less than 30 sec. Tablet hardness measures the structural integrity of a tablet “under conditions of storage, transportation, and handling before usage”. […]
A high pressure liquid chromatography [HPLC] method was developed for analysis of DAPA-2-5 in aqueous solution. […] Prototype tablets containing DAPA-2-5 were disintegrated and the content of DAPA-2-5 measured. […]

In a further data set the target is TRPM8 (Homo sapiens, UniProt Q7Z2W7). Put plainly: TRPM8 receptor agonist assay (Fluo-8 calcium, FLIPR). In kind it is cell-based. Also on record: host or cells: CHO cells, stably transfected. The procedure: Compounds were tested on (CHO) cells stably transfected with human TRPM8 cDNAs using a Fluo-8 calcium kit and a Fluorescence Imaging Plate Reader ([…]™) instrument. […] Solutions were prepared by diluting stock solutions in a HEPES-buffered physiological saline (HBPS) solution. Test compound and control formulations were loaded in polypropylene or glass-lined 384-well plates, and placed into the FLIPR instrument (Molecular Devices Corporation, Union City, Calif., USA). Each was tested at 8 concentrations with n=4 replicates per determination. […] For […]™ assay, cells were plated in 384-well black wall, flat clear-bottom microtiter plates (Type: BD Biocoat Poly-D-Lysine Multiwell Cell Culture Plate) at approximately 30,000 cells per well. Cells were incubated at 37° C. overnight to reach a near confluent monolayer appropriate for use in a fluorescence assay. The test procedure was to remove the growth media and to add 40 μL of HBPS containing Fluo-8 for 30 minutes at 37° C. 10 μL of test compound, vehicle, or control solutions in HBPS were added to each well and read for 4 minutes. Concentration-response data were analysed via the FLIPR Control software that is supplied with the FLIPR System (MDS-AT) and fitted to a Hill equation.

The subject of data set [2] is human circular smooth muscle. Put plainly: Spontaneous contractions of human colon circular smooth muscle strips in organ bath. The conditions noted are these: for IC50: read-out: median inhibitory concentration (IC50). Here is the method:
In this present study, Dapa was examined by Amato in her test system. […] As shown in the FIG. 3, DAPA-2-5, prepared as a solution dissolved in distilled water, produced a dose-dependent reduction of the amplitude of human colon smooth muscle contractions when it was added to the organic bath.
The experimental procedures were approved by the Ethics Committee, University of Palermo, Italy. Human distal colon samples were obtained after informed consent from patients without LGIT disorders. The specimens were immediately placed in preoxygenated Krebs solution and stored overnight at 4° C. Circular muscular strips (4 mm wide by 10 mm long) were cut and suspended in a four-channel organ bath and connected to an isometric force transducer (FORT 25, Ugo Basile, Biological Research Apparatus, Comerio, Va., Italy). The organ bath contained 8 mL of oxygenated Krebs solution at 37° C. Mechanical activity was analyzed using the PowerLab/400 system (Ugo Basile). A tension of 1 g was applied, and strips allowed to equilibrate until spontaneous phasic contractions were recorded. Dapa compounds were added at step concentrations of 1 to 300 μM to the organ bath, with washing in between, and the contractions recorded after 4 min when the drug effect stabilizes. The TRPM8 antagonist, 5-BT (10^−5 M), was added at least 15 min before Dapa.

Sequence of TRPM8 (Q7Z2W7 whole entry): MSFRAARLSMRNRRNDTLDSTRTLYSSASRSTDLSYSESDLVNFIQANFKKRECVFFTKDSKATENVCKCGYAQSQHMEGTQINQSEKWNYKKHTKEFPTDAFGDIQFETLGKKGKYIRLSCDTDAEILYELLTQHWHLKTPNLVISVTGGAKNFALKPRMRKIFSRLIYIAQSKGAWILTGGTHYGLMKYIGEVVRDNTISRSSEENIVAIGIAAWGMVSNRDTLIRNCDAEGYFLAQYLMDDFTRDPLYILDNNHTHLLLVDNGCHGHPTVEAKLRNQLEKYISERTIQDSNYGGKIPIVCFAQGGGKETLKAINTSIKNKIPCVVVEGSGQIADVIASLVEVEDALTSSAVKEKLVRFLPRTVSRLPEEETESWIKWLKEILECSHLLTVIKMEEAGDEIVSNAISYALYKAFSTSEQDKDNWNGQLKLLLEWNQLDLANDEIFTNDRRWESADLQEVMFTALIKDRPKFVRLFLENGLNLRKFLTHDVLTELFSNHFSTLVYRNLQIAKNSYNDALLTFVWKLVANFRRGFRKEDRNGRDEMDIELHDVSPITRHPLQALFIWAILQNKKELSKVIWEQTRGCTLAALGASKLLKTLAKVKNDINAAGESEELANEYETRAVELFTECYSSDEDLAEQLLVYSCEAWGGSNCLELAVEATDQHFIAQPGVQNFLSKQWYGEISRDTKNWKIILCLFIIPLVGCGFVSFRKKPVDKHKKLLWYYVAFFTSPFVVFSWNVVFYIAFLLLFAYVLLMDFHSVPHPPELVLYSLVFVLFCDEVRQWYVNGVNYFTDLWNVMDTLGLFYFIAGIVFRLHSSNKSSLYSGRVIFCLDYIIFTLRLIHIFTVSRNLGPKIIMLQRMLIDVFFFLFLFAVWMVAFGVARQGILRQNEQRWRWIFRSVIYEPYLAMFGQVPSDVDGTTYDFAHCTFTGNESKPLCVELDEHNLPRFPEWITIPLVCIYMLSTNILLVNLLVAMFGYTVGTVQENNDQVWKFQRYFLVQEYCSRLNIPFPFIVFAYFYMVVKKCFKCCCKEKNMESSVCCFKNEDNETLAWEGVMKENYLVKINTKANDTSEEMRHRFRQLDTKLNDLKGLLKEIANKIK

As to `CCCCCP(=O)(C(C)CC)C(C)CC` (stereo not drawn) [DAPA-2-5, 1-Di(sec-butyl) phosphinoyl-pentane], the “DAPA-2-5 recovered from the aqueous phase” value in data set [1] stood at 86±2%. For the same compound, on TRPM8 (TRPM8 relative potency as repeated in Table 4), the “×Menthol” value is given as 2.2. Also, on TRPM8 (relative to menthol = 1.0 (Table 2)), the “Relative Potency” value came to 2.2. Also, the IC50 is 34 µM in data set [2] (amplitude of spontaneous contractions, human distal colon circular muscle) and 8 µg/mL in data set [2] (spontaneous contractions, human circular smooth muscle in vitro). For the same compound, the “effect of TRPM8 antagonist on the inhibition of contractions” value in data set [2] (pretreatment with 5-BT (10^−5 M)) is listed as “inhibited by pretreatment with 5-BT”.

Values taken from US9956232B2, “Dialkyl-phosphinoyl-alkane (Dapa) compounds and compositions for treatment of lower gastrointestinal tract disorders” (priority 2016, dated 2018).
